In patent US6492334B1, “Tri-compound analgesic for treating inflammation and pain” (priority 1999, dated 2002):

Tests used:
diagnosed torn muscle = assay: Treatment of a subject with diagnosed torn muscle; format: in vivo, human; details: person; for side effect of the prescriptions: NAPROSYN and FLEXERIL prescribed together; for relief by the third day: NAPROSYN and FLEXERIL prescribed together with bed rest, ice packs, heat
Description: The seventh subject was a person with a diagnosed torn muscle. Emergency Room treatment prescribed NAPROSYN (the trademark name for the drug naproxen sodium) an NSAID, and FLEXERIL(the trademark name for the drug cyclobenzaprene) a muscle relaxant. Also prescribed was bed rest and ice packs for the next 2 to 3 days. Heat was to be used by the second day to relieve spasm. […] This subject was given a protocol of 5 gram of ACI per dose, not the 3 gram ACI per dose as in the previous examples. This protocol was to be taken every hours 4 times per day.
In all examples mentioned there was no compounding of any pills and no placebos were given.

arthritis = details: as reported by the American Rheumatism Association; cited from earlier work

Structure (SMILES) | side effect of the prescriptions (diagnosed torn muscle) | relief by the third day (diagnosed torn muscle) | effect on arthritis compared with placebo (arthritis)
CN(C)CCC=C1c2ccccc2C=Cc2ccccc21 [FLEXERIL, cyclobenzaprene] | made them drowsy | no relief | 
COc1ccc2c(c1)c(CC(=O)O)c(C)n2C(=O)c1ccc(Cl)cc1 [INDOCIN, indomethacin] |  |  | no more effect on arthritis than a placebo
COc1ccc2cc([C@H](C)C(=O)O)ccc2c1 [NAPROSYN, naproxen sodium] | made them drowsy | no relief | 
